In patent US20060234276A1, “Methods of treatment of type 2 diabetes” (priority 1998, published 2006):
Peptide text beside a SMILES is read from it.

Columns and labels:
mouse islets [1] = assay: Islet NAD(P)H autofluorescence response; type: cell-based
Protocol: (§1) Measurement of islet [Ca^2+]i, and NAD(P)H. Islet [Ca^2+]i and NAD(P)H were measured as previously described (Pontoglio et al., 1998; Dukes et al., 1998).

perifused mouse islets = assay: Insulin secretion from perifused islets; type: cell-based; details: 4 hr preincubation; 100 μM ALLM, 200 μM E-64-d
Protocol: Insulin secretion from perifused islets. Insulin secretion from perifused islets was measured using a modification of a previously described protocol (Pontoglio et al., 1998; Sreenan et al., 1998).

isolated β-cells = assay: Membrane capacitance recordings (exocytosis) in isolated β-cells; type: cell-based, mouse
Protocol: Isolation of pancreatic β-cells. Single β-cells were obtained from isolated islets dispersed by gentle trituration (120 strokes through a 200 μl pipette tip) in Ca^2+ and Mg^2+-free PBS containing […]. Cells were plated on glass coverslips and maintained in culture in RPMI containing 11.6 mM glucose for 48-96 hr.
Capacitance recordings. Capacitance measurements were made with the phase-tracking technique in which a 60 mV peak-to-peak sine wave was superimposed on a holding potential of −80 mV as previously described. Conductance and capacitance values were continuously generated and recorded. The whole-cell capacitance was canceled with the slow capacitance compensation; unbalancing the slow capacitance compensation by 100 fF provided the capacitance calibration signal used to calculate changes in membrane capacitance. The sinusoidal voltage template was interrupted to deliver depolarizations to a cell. Beta cells were stimulated with a train of ten step depolarizations to +20 mV (HP=−80 mV). Each step depolarization lasted 150 ms and was separated by 400 ms interpulse duration. Capacitance measurements were carried out in the perforated whole-cell configuration. The data were collected at a 500 μsec sampling rate and filtered at 5 kHz. Recordings with series resistance >20 MΩ were discarded. Series resistance compensation was applied in all recordings.
The recording solution for the capacitance measurements contained (in mM): 130 NaCl, 2 glucose, 10 Na-HEPES, 1 MgCl2, 2 KCl, and 5 CaCl2, pH 7.3 with NaOH. The pipette solution contained (in mM): 135 Cs-glutamate, 10 Na-HEPES, 9.5 NaCl, 0.5 TEACl, and 0.5 CaCl2, pH7.3 with CsOH. The pipettes were backfilled with an identical solution to which amphotericin B (final concentration of 0.5 mg/ml) was added and then sonicated. The amphotericin B stock solution (125 mg/ml) was kept frozen at −20° C. and used for one week. ALLM pre-treatment was as described above (see patch-clamp electrophysiology section). All electrophysiological recordings were carried out at room temperature (22-24° C.)

soleus muscle strips = assay: Glycogen synthesis rates in skeletal muscle; type: cell-based, rat; details: 100 μM ALLM or 200 μM E-64-d
Excerpt: Glycogen synthesis rates in skeletal muscle.

mouse islets [2] = assay: Measurement of islet [Ca2+]i (Fura-2); type: cell-based
Protocol: as §1
Insulin secretory responses to glucose and most other secretagogues is mediated by a rise in intracellular free calcium ([Ca^2+]i). We therefore measured [Ca^2+]i responses to glucose, KIC and KCl using Fura-2 as the Ca^2+ indicator. In comparison to the responses from the control islets, the most prominent abnormality in [Ca^2+]i responses to glucose and KIC was a delay of the [Ca^2+]i responses (FIG. 21). The mean time interval between administration of 14 mM glucose and the point of half maximal response (T1/2.) was 120±14 seconds in control islets. […] There was no delay in the appearance of [Ca^2+]i response to KCl, nor was the magnitude of the response reduced.

In the case of `CSCC[C@@H](C=O)NC(=O)[C@H](CC(C)C)NC(=O)[C@H](CC(C)C)NC(C)=O` [ALLM, N-Ac-Leu-Leu-methioninal] (Ac-Leu-Leu-Met-aldehyde), the “NAD(P)H response to increase in glucose from 2 to 14 mM” value (mouse islets [1]; 100 μM ALLM or E-64-d, 4 hr preincubation) is reported as 2.7±0.4 fold increase, the “NAD(P)H responses to KIC vs control” value (mouse islets [1]; 48 h treated islets) is reported as “significantly reduced” and the “NAD(P)H responses to glucose vs control” value (mouse islets [1]; 48 h treated islets) is reported as “comparable”. The “enhancement of insulin secretory response to 20 mM glucose in dynamic islet perifusion” value (perifused mouse islets) was “also observed”, the “rates of exocytosis in β-cells” value (isolated β-cells; 4 days culture with inhibitor) was “significantly lower rates of exocytosis” and the “change in membrane capacitance elicited by train of depolarizations” value (isolated β-cells; ALLM 100 μM pre-treatment, vs control cells) was “much larger average changes in membrane capacitance”. For the same compound, the “magnitude of insulin-induced increase in muscle glycogen synthesis” value (soleus muscle strips; insulin 6 nM) was 0.13±0.03 nmol glucose/mg/hr, the “rate of muscle glycogen synthesis with insulin” value (soleus muscle strips; insulin 6 nM) was 0.40±0.05 nmol glucose/mg/hr and the “rate of muscle glycogen synthesis without insulin” value (soleus muscle strips; no insulin) was 0.27±0.03 nmol glucose/mg/hr. For the same compound, the “[Ca2+]i response to high glucose” value (mouse islets [2]; 4 hr preincubation, 14 mM glucose) was “not associated with increases in [Ca^2+]i”, the “[Ca2+]i response to glucose ramp (2 to 26 mM over 48 mins)” value (mouse islets [2]; 48 h treated islets) was “diminished” and the “[Ca2+]i responses to 30 mM KCl vs control” value (mouse islets [2]; 48 h treated islets) was “not different”. For the same compound, the “integrated [Ca2+]i responses (area under the curves) to glucose and KIC vs control” value (mouse islets [2]; 48 h treated islets) was “significantly smaller”, the “T1/2 of [Ca2+]i response to 14 mM glucose (time to half maximal response)” value (mouse islets [2]; 48 h treated islets, control 120±14 seconds) was 5.32 ± 0.7 min and the “T1/2 of [Ca2+]i response to KIC” value (mouse islets [2]; 48 h treated islets, control 125±9) was 4.18 ± 0.7 min.
